In US8329693B2, “Method for the prevention of thromboembolic disorders” (Orion Corporation, priority 2004, dated 2012):

Key:
[1] = test system: Dahl SS rats on high-salt diet; assay: Ex vivo MRI of post-mortem brain, Dahl salt-sensitive rat stroke model; format: in vivo
Procedure: Dahl SS rats were divided into three treatment groups: High-Salt diet+vehicle (n=20), High-Salt diet+Levosimendan 1 mg/kg/day (n=20), and Normal-Salt diet control (n=4). High salt diet contained 7% of NaCl in commercial low salt diet. Feeding with the high-salt diet was started at the age of 6 weeks and continued 7 weeks until the end of the study. Levosimendan was administered via drinking water (2 mg/l of levosimendan in drinking water). The administration was started at the same time as the high-salt diet and continued until the end of the study. The consumption of drinking water and food as well as the body weight and general health of the animals were monitored. MRI was performed once-a-week during the weeks 2-8. FOB and 7-point Neuroscore testing were performed once-a-week during the weeks 1-3 and twice-a-week during weeks the 4-8.
For ex-vivo imaging post-mortem brain was removed from the skull and immersed into 4% formalin for 48 h and thereafter stored in 0.1 M PBS. The brain was embedded in perfluoropolyether and MRI was performed in 9.4 T magnet (Oxford) interfaced to a SMIS-console. The interpretation of hyperintensity and signal void areas follows that presented for in vivo studies. In ex vivo studies only mature lesions with significant oedema and destructed tissue structure can be detected. Initial T2 contrast, which may be detectable in vivo, may not be visible in ex vivo studies. The findings in ex vivo studies support the idea that most of the ischemic lesions were associated with hemorrhage. […] Abbreviations: LS, levosimendan.

[2] = test system: Kininogen; assay: Effect on kininogen expression in rat heart (2-DE gels, silver staining, MALDI-TOF); format: in vivo, Rattus novergicus; details: levosimendan orally 20 mg/l in tab water for eight days
Procedure: Rats were given levosimendan orally 20 mg/l in tab water and controls only tab water for eight days. Hearts were frozen in liquid nitrogen and stored at −80° C. The heart tissues were lyophilized on ice over night and incubated in lysis buffer; 9 M urea, 20 mM Tris-HCl pH 7.4, 50 mM KCl, 3 mM EDTA pH 7.5, 0.5% IPG buffer 3-10 NL, 5 mM PMSF, 1% DTT and Benzoase 100 Units for 10 min at room temperature. The protein solution was then sonicated 2×15 s and centrifuged at 14000 rpm for 5 min. The supernatants were collected and the protein amount measured based on the protein assay kit from BioRad. 40 μg protein solution was diluted in 350 μl of rehydration buffer; 7 M urea, 2 M thiourea, 2 mM TBP, 0.5% IPG buffer 3-10 NL, 4% CHAPS and 0.2% BFB, incubated for 30 min at room temperature and centrifuged for 5 min at 14000 rpm. […]
The focused strips were equilibrated in the following buffer: 6 M urea, 50 mM Tris-HCl, pH 8.8, 2% SDS, 30% glycerol, 2% DTT, 2.5% iodoacetamide and 0.2% BFB 2×10 min at room temperature. […] The silver stained gels were analyzed by PD-QUEST(6.2) 2-DE software (BIO-RAD). […]
All samples were prepared by reversed phase pipette tips C18 (ZipTip, Millipore). […] The samples were analyzed in a TOF mass spectrometer (Voyager-DE PRO). […] The masses of the obtained peptides were analysed by the MS-fit program on the Expasy Molecular Biology server PeptIdent.

[3] = test system: Dahl salt-sensitive rats on high salt diet; assay: Effects on mortality in salt sensitive rat model (Experiment 1); format: in vivo
Source text: Effect of levosimendan on early stage mortality of Dahl salt-sensitive rats was studied. Dahl salt-sensitive rats on high salt diet develop hypertension and increased mortality. In the early stages of hypertension the incidence of death is almost entirely due to stroke and sudden death. See Qu, P. et al., Hypertens. Res., 2000; 23:613-623.
6-week-old male Dahl salt-sensitive rats (SS/JrHsd) received the following diet and drug regimens for 7 weeks: 1) Dahl SS controls on high salt diet, 2) Dahl SS rats on high salt diet+high-dose levosimendan (10 mg/l of levosimendan in drinking water), 3) Dahl SS rats on high salt diet+low-dose levosimendan (1 mg/l of levosimendan in drinking water) and 4) Dahl SS controls on low salt diet. High salt diet was produced by adding NaCl to commercial low salt diet.
Only 38% (9/24) of rats on high salt diet survived the 7-week follow up period.

CC1CC(=O)NN=C1c1ccc(NN=C(C#N)C#N)cc1 (single isomer, unassigned; (-)) [levosimendan, (−)-enantiomer of [[4-(1,4,5,6-tetrahydro-4-methyl-6-oxo-3-pyridazinyl)phenyl]hydrazono]propanedinitrile]
Incidence of T2 changes, class 0 ([1]; class 0, levosimendan 1 mg/kg/day): 80%
Incidence of T2 changes, class 1-50 ([1]; class 1-50, levosimendan 1 mg/kg/day): 20%
Incidence of T2 changes, class 51-100 ([1]; class 51-100, levosimendan 1 mg/kg/day): 0%
Incidence of T2 changes, class >200 ([1]; class >200, levosimendan 1 mg/kg/day): 0%
kininogen protein expression in rat heart versus control [2]: ten fold up-regulated
early stage mortality of salt-sensitive rats ([3]; 7 weeks, levosimendan in drinking water): markedly reduced
rats that died during the 7-week follow up period ([3]; high-dose levosimendan, 10 mg/l in drinking water): three out of 12
rats that died during the 7-week follow up period ([3]; low-dose levosimendan, 1 mg/l in drinking water, n=12): None
